The source made the active and inactive calls.
What was measured:
[1] = molecular target: Potassium voltage-gated channel subfamily KQT member 2 (Rattus norvegicus, UniProt O88943); assay: KCNQ2 potassium channel inhibitors, dose response, cell-based, automated electrophysiology, set II, rat KCNQ2 (AID 588637); format: functional
Interleukin-8 = molecular target: T1, Interleukin-8 (Homo sapiens, UniProt P10145); assay: Dose Response confirmation of uHTS small molecule hits for cystic fibrosis induced NFkb Inhibitors in a PAF-induced IL8 counterscreen.; format: functional; details: read-out: IC50_Mean
T1 sequence (P10145 whole entry): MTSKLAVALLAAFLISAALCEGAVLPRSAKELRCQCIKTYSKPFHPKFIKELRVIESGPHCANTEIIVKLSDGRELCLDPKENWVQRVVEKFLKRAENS

Protein RecA = molecular target: T2, Protein RecA (Mycobacterium tuberculosis, UniProt P9WHJ3); assay: Fluorescence Cell-Free Homogeneous Dose Retest to Identify Inhibitors of RecA-Intein Splicing Activity. [Related pubchem assays (depositor defined):AID2097, AID2223, AID489010, AID492950]; format: functional
T2 sequence (P9WHJ3 whole entry): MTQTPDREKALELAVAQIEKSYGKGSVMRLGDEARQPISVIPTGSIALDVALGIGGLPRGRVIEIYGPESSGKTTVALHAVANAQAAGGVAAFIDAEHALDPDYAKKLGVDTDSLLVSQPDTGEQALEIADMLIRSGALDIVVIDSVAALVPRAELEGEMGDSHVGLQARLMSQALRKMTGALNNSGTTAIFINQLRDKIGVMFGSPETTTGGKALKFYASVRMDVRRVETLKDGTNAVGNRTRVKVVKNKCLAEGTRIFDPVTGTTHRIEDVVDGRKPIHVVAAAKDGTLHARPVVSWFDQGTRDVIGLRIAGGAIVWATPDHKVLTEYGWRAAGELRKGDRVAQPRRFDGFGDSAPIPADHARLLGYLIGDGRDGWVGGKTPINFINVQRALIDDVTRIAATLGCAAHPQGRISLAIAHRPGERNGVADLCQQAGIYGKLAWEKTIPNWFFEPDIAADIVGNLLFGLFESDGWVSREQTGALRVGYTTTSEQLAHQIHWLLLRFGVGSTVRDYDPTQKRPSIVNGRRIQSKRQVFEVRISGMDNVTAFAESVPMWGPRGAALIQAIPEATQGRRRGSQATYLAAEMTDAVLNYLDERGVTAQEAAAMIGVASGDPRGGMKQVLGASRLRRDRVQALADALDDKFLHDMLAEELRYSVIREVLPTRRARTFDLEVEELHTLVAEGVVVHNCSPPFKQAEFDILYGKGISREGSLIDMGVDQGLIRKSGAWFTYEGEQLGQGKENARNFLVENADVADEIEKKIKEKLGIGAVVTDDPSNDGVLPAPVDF

[2] = molecular target: T3, Replicative DNA helicase DnaB (Mycobacterium tuberculosis, UniProt P9WMR3); assay: DnaB intein splicing inhibitors, dose response, biochemical, cell-free fluorescence (AID 449749); format: functional
T3 sequence (P9WMR3 whole entry): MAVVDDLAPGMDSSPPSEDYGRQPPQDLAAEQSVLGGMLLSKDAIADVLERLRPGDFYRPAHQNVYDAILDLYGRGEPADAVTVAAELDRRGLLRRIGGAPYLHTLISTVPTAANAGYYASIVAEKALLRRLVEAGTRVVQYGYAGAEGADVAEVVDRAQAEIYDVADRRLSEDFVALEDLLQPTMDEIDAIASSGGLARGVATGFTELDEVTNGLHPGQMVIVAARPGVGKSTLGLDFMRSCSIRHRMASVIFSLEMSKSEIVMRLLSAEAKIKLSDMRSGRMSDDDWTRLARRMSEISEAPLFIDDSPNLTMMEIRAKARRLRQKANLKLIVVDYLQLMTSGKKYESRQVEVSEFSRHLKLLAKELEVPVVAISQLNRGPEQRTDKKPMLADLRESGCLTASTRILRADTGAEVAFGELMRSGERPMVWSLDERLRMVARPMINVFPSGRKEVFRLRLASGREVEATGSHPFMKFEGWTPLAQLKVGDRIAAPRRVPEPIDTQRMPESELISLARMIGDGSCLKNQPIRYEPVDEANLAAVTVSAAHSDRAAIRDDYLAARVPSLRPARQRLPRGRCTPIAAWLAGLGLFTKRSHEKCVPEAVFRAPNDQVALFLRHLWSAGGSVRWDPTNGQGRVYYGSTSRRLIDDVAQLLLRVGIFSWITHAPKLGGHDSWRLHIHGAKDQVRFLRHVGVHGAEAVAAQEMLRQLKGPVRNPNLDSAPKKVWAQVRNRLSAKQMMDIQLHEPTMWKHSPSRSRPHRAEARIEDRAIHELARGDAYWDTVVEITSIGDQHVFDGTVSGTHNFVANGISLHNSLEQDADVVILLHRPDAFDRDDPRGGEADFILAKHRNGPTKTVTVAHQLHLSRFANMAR

[3] = A Cell Based Secondary Assay to Explore Cytotoxicity in THP-1 Cells of Compounds that Modulate Mycobacterium tuberculosis in Media Containing Glycerol versus Media without Glycerol (2).; format: functional
[4] = Vero cell cytotoxicity, cytotoxicity control for M. tuberculosis inhibitor project, purified and synthesized samples, set 3 (AID 504684); format: functional
[5] = AlphaScreen signal interference compounds, dose response, artefact control for ARNT-TACC3 interaction inhibitor project, biochemical, luminescence, cherry-pick (AID 651705); format: functional;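 also: AlphaScreen bead proximity signal that flags compounds interfering with the detection technology; potency reflects signal decrease which marks the compound as an assay artifact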
[6] = ARNT/TACC3 interaction disruptors, potency, confirmation, biochemical, AlphaScreen, cherry-picked samples (AID 651703); format: functional, Homo sapiens;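 also: His-tagged ARNT PAS-B domain paired with GST-TACC3 E629A dimer coactivator fragment; potency of inhibitors that break up the complex and lower AlphaScreen signal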
[7] = molecular target: T4, Aryl hydrocarbon receptor (Homo sapiens, UniProt P35869); details: Potency;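 also: confirmatory quantitative high-throughput screen measuring activation of the AhR signaling pathway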
T4 sequence (P35869 whole entry): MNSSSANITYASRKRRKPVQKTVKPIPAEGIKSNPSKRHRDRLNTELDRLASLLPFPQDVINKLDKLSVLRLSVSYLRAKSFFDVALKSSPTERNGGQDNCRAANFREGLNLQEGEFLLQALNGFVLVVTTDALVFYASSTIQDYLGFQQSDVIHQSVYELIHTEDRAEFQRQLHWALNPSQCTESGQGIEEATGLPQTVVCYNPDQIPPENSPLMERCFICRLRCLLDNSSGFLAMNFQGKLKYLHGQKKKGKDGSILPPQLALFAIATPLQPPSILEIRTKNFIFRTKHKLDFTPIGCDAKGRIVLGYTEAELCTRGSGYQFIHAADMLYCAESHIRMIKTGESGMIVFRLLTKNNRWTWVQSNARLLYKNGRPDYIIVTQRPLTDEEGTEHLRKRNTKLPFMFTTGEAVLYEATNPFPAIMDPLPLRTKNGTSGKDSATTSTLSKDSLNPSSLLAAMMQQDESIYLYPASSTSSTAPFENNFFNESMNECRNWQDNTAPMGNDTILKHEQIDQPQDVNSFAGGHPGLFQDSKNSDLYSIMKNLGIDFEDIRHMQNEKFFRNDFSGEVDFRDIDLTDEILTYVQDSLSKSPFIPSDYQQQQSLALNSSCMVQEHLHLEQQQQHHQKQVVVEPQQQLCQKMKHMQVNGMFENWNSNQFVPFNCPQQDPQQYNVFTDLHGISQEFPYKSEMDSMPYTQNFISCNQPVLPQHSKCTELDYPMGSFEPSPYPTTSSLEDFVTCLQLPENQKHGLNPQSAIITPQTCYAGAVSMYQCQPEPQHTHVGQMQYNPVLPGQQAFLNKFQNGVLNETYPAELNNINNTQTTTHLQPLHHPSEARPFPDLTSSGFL

[8] = molecular target: DNA (cytosine-5)-methyltransferase 1 (Homo sapiens, UniProt P26358); assay: DNMT1 methyltransferase inhibitors, confirmation, biochemical, fluorescent molecular beacon (AID 602386); format: functional
[9] = system: Streptococcus sp. 'group A'; assay: growth inhibition of control SK(-) GAS strain, dose response, counter-screen for streptokinase expression inhibitor project, luminescence, kanamycin, BacTiterGlo, confirmation (AID 1900); format: functional, organism-based
Nonstructural protein 1 = Nonstructural protein 1 (Influenza A virus, UniProt Q194T2); format: functional, Influenza A virus (A/California/07/2009(H1N1))
Streptococcus = assay: Group A Streptococcus viability loss, dose response, counter-screen for streptokinase expression inhibitor project, luminescence, BacTiterGlo (AID 1915); format: functional, organism-based;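 also: potency for reduction of bacterial viability or growth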
Estrogen receptor beta [10] = molecular target: T5, Estrogen receptor beta (Homo sapiens, UniProt Q92731); assay: ERβ–SRC-3 coactivator interaction inhibitors, confirmation, orthogonal assay, biochemical, ELISA, streptavidin-HRP readout (AID 1060)
Estrogen receptor beta [11] = molecular target: T5, Estrogen receptor beta
Genome polyprotein = Genome polyprotein (dengue virus type 2, UniProt P29990); assay: Dengue-2 NS5 methyltransferase inhibitors, primary screen, biochemical, confirmation dose response (AID 588689); format: functional
Estrogen receptor = molecular target: T6, Estrogen receptor (Homo sapiens, UniProt P03372);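 also: potency for inhibiting coactivator peptide recruitment to the receptor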
T6 sequence (P03372 whole entry): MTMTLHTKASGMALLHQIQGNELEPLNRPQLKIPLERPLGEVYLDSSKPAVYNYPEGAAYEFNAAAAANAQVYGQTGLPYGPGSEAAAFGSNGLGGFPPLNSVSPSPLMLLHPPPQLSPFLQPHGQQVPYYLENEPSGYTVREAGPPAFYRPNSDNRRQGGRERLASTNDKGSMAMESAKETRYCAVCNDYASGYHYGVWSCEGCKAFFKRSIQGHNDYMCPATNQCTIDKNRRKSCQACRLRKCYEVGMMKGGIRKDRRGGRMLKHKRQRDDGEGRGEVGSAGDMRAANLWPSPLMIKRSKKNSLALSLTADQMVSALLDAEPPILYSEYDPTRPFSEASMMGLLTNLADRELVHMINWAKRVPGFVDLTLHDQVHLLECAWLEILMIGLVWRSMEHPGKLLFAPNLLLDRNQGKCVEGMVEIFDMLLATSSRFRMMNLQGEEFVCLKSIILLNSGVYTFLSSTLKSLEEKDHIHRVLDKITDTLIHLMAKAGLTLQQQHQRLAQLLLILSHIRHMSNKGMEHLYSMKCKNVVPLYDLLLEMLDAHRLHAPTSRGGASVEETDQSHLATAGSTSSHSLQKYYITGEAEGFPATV

[12] = molecular target: Hepatocyte nuclear factor 4-alpha (Homo sapiens, UniProt P41235); format: functional, cell-based;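 also: biochemical luminescence-based dose-response counterscreen measuring inhibition of HNF4 dimerization, run alongside a screen for blockers of ABHD5–perilipin-5 interaction; split luciferase complementation of HNF4 fusion proteins in cell lysate measuring dimerization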
[13] = molecular target: T7, Corticotropin-releasing factor receptor 2/Corticotropin-releasing factor-binding protein (Homo sapiens, UniProt P24387+Q13324); assay: activators of CRF receptor 2 with binding protein – uHTS hits, confirmation (AID 602473); format: functional; details: read-out: EC50_Mean
T7 sequence (Q13324 whole entry): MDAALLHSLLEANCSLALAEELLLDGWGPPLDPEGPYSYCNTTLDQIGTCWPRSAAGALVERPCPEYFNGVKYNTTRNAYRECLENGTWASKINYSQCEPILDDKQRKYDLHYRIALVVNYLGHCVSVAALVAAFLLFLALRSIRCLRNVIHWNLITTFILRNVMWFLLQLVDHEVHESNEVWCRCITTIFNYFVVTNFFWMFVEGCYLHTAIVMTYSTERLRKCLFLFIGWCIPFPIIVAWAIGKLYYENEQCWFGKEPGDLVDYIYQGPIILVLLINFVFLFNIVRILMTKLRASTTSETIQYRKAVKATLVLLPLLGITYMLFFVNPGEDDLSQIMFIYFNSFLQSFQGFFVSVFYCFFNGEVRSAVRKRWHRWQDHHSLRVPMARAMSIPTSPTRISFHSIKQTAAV
T7 sequence (P24387 whole entry): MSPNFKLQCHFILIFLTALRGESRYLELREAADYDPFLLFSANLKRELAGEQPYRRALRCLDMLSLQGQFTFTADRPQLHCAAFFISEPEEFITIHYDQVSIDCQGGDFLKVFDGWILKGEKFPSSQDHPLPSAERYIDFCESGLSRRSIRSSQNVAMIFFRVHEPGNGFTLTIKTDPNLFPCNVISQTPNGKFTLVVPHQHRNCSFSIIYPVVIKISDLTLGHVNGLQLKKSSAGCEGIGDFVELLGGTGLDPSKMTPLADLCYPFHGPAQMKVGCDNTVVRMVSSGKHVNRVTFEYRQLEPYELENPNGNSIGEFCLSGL

[14] = CRF-BP/CRF-R2 complex antagonists, dose response, cell-based, uHTS hits, 384-well (AID 651639); format: functional, Homo sapiens; details: read-out: IC50_Mean
[15] = molecular target: T8, Carboxy-terminal domain RNA polymerase II polypeptide A small phosphatase 1 (Homo sapiens, UniProt Q9GZU7); assay: inhibitors of CTDSP1, concentration-response testing, biochemical assay, absorbance-based, actives from ultra-high-throughput screening (AID 540297); format: functional
T8 sequence (Q9GZU7 whole entry): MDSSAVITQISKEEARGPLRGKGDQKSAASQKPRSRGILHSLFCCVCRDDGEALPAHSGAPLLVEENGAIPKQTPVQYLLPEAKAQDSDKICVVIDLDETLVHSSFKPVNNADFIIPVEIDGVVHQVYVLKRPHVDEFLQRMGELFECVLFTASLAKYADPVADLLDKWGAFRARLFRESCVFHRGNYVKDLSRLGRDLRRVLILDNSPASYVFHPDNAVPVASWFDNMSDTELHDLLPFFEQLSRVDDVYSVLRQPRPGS

[16] = molecular target: T7, Corticotropin-releasing factor receptor 2/Corticotropin-releasing factor-binding protein; assay: Dose Response confirmation of uHTS hits for small molecule antagonists of the CRF-binding protein and CRF-R2 receptor complex.; format: functional; details: read-out: IC50_Mean

T5 sequence (Q92731 whole entry): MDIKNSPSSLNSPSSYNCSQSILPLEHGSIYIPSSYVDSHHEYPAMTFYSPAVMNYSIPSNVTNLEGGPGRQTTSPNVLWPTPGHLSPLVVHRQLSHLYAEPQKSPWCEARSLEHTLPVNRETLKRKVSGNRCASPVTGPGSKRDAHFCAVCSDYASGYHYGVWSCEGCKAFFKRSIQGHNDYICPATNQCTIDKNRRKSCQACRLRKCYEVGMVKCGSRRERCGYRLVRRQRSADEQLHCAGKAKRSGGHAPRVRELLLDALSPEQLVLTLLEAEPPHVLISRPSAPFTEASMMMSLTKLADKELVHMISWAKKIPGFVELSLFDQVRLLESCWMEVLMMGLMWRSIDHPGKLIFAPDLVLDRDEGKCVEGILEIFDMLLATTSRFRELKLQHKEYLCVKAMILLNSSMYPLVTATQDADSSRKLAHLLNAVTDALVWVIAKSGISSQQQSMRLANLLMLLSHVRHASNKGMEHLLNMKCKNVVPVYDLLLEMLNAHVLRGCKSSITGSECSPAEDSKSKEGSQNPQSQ
Sequence of Hepatocyte nuclear factor 4-alpha (P41235 whole entry, the tested form may be a part): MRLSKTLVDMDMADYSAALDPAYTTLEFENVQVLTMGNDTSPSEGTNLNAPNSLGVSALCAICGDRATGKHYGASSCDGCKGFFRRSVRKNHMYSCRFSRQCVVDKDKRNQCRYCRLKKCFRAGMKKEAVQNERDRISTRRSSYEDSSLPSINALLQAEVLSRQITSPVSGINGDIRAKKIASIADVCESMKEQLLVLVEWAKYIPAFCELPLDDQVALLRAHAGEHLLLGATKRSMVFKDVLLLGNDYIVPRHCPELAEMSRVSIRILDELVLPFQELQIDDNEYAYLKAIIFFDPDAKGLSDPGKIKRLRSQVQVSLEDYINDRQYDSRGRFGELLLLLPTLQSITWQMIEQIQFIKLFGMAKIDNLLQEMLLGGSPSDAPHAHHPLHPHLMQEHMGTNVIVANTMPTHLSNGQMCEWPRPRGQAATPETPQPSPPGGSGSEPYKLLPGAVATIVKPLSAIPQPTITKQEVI
Sequence of Nonstructural protein 1 (Q194T2 whole entry): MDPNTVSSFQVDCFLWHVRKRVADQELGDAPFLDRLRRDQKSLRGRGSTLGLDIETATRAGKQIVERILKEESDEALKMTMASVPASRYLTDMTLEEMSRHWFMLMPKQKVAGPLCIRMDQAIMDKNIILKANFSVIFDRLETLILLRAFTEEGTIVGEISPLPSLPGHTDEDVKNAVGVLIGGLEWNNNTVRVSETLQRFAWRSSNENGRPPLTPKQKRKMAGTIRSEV
Sequence of DNA (cytosine-5)-methyltransferase 1 (P26358 whole entry): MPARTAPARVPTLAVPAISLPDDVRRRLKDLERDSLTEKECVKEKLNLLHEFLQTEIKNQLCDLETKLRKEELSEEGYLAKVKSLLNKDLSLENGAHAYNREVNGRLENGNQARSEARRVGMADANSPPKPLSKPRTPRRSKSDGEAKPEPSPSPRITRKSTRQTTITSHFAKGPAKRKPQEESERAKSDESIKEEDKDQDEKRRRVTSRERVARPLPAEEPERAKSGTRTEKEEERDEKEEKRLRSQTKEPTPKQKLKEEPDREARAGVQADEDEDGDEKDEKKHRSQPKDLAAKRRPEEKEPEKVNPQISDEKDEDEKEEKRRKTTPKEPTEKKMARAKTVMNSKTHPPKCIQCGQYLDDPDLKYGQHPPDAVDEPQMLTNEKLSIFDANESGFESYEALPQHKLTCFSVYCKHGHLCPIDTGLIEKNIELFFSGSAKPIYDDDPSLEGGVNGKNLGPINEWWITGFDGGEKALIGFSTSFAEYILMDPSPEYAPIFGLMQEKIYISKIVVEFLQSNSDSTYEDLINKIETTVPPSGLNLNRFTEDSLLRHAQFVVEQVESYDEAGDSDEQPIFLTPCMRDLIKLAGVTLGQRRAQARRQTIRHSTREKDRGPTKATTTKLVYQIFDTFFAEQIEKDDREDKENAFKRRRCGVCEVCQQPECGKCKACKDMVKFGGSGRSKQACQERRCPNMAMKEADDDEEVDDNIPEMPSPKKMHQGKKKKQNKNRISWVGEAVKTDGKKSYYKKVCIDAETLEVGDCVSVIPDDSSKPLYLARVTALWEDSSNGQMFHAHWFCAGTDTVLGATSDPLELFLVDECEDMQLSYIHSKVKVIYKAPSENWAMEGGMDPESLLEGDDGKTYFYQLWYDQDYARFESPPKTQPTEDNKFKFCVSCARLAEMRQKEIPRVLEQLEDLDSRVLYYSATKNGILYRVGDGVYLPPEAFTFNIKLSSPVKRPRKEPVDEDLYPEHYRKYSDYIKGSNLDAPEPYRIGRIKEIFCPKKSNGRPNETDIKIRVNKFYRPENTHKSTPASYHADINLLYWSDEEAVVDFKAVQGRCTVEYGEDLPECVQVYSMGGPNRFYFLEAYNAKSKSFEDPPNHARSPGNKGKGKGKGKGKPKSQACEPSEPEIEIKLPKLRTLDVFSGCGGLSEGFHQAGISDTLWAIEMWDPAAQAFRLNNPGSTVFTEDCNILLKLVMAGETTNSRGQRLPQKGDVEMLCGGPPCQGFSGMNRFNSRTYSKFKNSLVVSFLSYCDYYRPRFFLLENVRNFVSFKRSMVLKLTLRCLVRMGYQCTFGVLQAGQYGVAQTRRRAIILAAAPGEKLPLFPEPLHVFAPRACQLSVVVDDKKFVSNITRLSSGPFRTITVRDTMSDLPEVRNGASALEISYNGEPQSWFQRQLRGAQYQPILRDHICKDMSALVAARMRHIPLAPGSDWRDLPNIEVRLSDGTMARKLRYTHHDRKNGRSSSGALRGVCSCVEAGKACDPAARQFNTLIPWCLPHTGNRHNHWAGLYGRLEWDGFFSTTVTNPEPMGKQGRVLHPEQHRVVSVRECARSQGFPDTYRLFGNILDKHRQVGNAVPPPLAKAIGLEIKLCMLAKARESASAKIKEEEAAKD
Sequence of Genome polyprotein (P29990 2492-3391 limits assumed): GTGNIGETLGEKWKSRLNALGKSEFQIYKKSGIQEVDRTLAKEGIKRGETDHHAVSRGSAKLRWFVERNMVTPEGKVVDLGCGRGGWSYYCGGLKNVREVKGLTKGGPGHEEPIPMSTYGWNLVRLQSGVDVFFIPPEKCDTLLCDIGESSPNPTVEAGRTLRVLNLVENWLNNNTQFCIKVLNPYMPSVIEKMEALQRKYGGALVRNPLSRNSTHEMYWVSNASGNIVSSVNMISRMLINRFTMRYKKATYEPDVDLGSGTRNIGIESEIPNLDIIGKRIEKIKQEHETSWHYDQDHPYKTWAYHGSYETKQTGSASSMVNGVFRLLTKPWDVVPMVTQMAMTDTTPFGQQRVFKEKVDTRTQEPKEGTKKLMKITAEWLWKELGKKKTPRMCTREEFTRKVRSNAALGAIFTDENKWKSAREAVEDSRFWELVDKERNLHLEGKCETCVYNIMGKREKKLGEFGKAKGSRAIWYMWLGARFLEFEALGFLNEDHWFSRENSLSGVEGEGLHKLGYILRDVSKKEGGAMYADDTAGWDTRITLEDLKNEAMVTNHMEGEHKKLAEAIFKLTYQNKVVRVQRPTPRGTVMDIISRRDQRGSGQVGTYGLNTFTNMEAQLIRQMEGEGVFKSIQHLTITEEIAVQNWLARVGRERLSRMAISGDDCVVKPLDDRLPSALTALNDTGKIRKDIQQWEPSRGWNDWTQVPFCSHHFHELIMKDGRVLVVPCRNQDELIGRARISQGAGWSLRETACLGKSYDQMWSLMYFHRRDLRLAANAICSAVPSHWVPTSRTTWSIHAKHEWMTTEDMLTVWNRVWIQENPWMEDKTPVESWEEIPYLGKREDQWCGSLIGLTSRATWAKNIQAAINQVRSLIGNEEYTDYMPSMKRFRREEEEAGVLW
Sequence of Potassium voltage-gated channel subfamily KQT member 2 (O88943 whole entry): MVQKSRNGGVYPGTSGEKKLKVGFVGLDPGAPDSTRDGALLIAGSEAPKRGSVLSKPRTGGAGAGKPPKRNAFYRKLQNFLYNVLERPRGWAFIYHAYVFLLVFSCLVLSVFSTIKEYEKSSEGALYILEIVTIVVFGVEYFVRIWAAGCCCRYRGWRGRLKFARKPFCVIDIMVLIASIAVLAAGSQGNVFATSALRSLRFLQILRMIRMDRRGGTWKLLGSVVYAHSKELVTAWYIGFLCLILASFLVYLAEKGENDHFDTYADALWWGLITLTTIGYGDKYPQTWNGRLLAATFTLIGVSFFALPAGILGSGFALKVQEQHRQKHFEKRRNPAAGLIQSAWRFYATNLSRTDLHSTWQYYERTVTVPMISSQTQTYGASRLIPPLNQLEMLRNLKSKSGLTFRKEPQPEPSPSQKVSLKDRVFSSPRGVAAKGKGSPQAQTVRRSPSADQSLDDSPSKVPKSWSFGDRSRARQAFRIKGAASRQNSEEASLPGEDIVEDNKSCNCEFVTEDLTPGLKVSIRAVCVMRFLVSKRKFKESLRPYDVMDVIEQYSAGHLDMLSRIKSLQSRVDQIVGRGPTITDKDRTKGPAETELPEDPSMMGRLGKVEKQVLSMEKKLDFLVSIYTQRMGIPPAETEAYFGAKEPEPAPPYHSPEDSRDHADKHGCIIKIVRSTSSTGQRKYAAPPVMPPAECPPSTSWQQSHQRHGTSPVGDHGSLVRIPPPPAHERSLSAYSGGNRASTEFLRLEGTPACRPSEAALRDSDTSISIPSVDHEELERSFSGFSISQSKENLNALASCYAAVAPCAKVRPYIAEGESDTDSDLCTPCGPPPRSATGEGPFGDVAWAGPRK

## O=C(OCC(=O)N(CCc1ccccc1)Cc1ccccc1)c1ccccc1O
[1]
  IC50: 1.83 µM (active)

## OCCN1CCN(c2ncnc3ccc(Br)cc23)CC1
Interleukin-8
  IC50: 22 µM (inactive)

## CCOC(=O)C(C)Sc1ncnc2c1nnn2-c1ccc(F)cc1 (centres undefined)
Protein RecA
  EC50: 10.9 µM (active)
[2]
  AC50: 10.4 µM (active)
[3]
  CC50: 55.2 µM (active)
[4]
  CC50: 67.1 µM (active)

## Cc1cccc(NC(=O)CSc2cccc3cccnc23)c1
[5]
  AC50: 76.9 µM (active)

## COC(=O)CC1=NN(c2nc(C)cc(C)n2)C(=O)C1
Protein RecA
  EC50: > 380 µM (inactive)
[6]
  AC50: 123 µM (active)
[2]
  AC50: 103 µM (active)

## CC1(COc2ccc(CC3SC(=O)NC3=O)cc2)CCCCC1 (centres undefined) [CIGLITAZONE]
[7]
  AC50: 56.2 µM (inconclusive)

## Cc1nn(-c2ccccc2)c(Cl)c1/C=N/Nc1ccc(S(=O)(=O)Nc2ccccc2C(=O)O)cc1[N+](=O)[O-]
[8]
  IC50: 4.29 µM (active)
[9]
  EC50: 1.86 µM (active)
Nonstructural protein 1
  IC50: 67.6 µM (active)
Streptococcus
  EC50: 4.27 µM (active)
Estrogen receptor beta [10]
  IC50: > 50 µM (not active)
Estrogen receptor beta [11]
  IC50: 7.26 µM (active)
Genome polyprotein
  IC50: 33.1 µM (active)
Estrogen receptor
  IC50: 6.84 µM (active)

## O=C(NC1CCCCC1)C(c1cccc2ccccc12)n1c(=O)c(-c2ccco2)nc2ccccc21 (centres undefined)
[12]
  IC50: 1.48 µM (active)

## C=CCn1cnc2c(c1=O)c1nc3ccccc3nc1n2/N=C/c1cccc(OC)c1OC
[13]
  EC50: > 53 µM (inactive)
[14]
  IC50: 2.21 µM (active)
[15]
  IC50: 10.1 µM (active)
[16]
  IC50: 3.36 µM (active)
